Results on one molecule are retold here after patent US11613552B2, “Pharmaceutical agents, compositions, and methods relating thereto” (Alltech, Inc., priority 2017, dated 2023).

The test system of one assay is PDK1/AKT/FOXO1. As to the kind of experiment: Western blot of PDK1/AKT/FOXO1 in serum-starved HepG2 cells. It is filed as cell-based, human. The procedure: HepG2 cells were seeded on 6-well plates (7×10^5 cells/well) and cultured in 10% FBS EMEM media for 30 hr. Then these cells were washed twice with PBS to remove residual sera, and serum-starved in plain EMEM media overnight. […]
After the above described treatments, cultured HepG2 and AML-12 cells were rinsed twice with ice-cold PBS and lysed in ice-cold RIPA buffer containing complete proteinase and phosphatase inhibitors (Thermo-Fisher Scientific, Waltham, Mass.) on ice for 30 min. Cell lysates were collected using a cell scraper and transfer pipette, and then centrifuged at 12000×g for 30 min at 4° C. to remove the DNA pellet and obtain the protein extract. Protein levels in the supernatant of these cell lysates were determined using the Pierce Micro-BCA protein assay kit (Thermo Scientific-Piece Biotechnology, Rockford, Ill.) according to the manufacturer's protocol.
One hundred micrograms of liver tissue proteins or five micrograms of total proteins from control- and compound(s)-treated HepG2 or AML-12 cells were subjected to SDS-PAGE gel separation and then transferred to PVDF membranes, as described previously (Reddy et al. 2008 Science). Membranes were blocked in a phosphate-buffered saline (PBS) containing 5% (w/v) of bovine serum albumin (Sigma, St. Louis, Mo.) and incubated with specific primary antibodies followed by the incubation with HRP-conjugated anti-mouse or anti-rabbit secondary antibodies (1:5000 dilution, Cell Signaling Inc.). All primary antibodies except Gapdh (Li-COR, Lincoln, Nebr.) were purchased from Cell Signaling Inc. Positive signals on the membrane blots were detected using the Amersham's enhanced chemiluminescence Western Blotting Prime Detection reagents (GE Healthcare Lifescience, Pittsburgh, Pa.). Images of these luminescence signals on the membrane blots were captured using the LI-COR Odyssey Fc Image system (Lincoln, Nebr.). The same membrane blot was stripped and re-blotted with another antibody as described in the GE WB ECL-prime-detection protocol (GE healthcare Lifescience, Pittsburgh, Pa.). Protein band densities in the Western blots were determined using the NIH ImageJ software and then normalized by Gapdh or Actb/ACTB level in each sample. Data are presented as mean±SEM of three samples per each group.
In general terms: In western blotting, separated proteins are transferred to a membrane and probed.

Assay [1] deals with differentiated C2C12 cells. As to the kind of experiment: Glucose uptake in differentiated C2C12 (skeletal muscle) cells. Format: cell-based, mouse. The procedure: The mouse myoblast C2C12 cells were purchased from the American Type Culture Collection (ATCC, Manassas, Va.). These cells were amplified in DMEM media supplemented with 10% FBS. Equal number of C2C12 cells were then seeded on 96-well plates (5000 cells/well) and cultured in 10% FBS DMEM media at 37° C. for 5 days. Cells were replenished daily with fresh 10% FBS DMEM media. At day 5 of culture, C2C12 cells were differentiated using 0.5% horse serum (Sigma)-containing DMEM media (differentiation media) continuing for 7 days with daily replacement of fresh differentiation media, as previously described (Misu et al, Cell Metabolism 12, 483-495, 2010). At day 7 post-differentiation, differentiated C2C12 cells were rinsed with PBS twice and pretreated without or with 0.006% DMSO (Compound #43 solvent) or Compound #43 (300 or 600 ppb) in serum-free glucose-free DMEM media overnight. Then these cells were washed once with PBS, and then treated without (basal) or with insulin (200 nM), Compound #43 (300 and 600 ppb), or both insulin and Compound #43 in glucose/phenol red-free DMEM media at 37° C. for 1.5 hr. After treatment, media was removed and cells were washed once with PBS and incubated with 1 mM 2-deoxyglucose (2DG) at room temperature for 30 min. […] Luminescent signals were recorded using a Bio-Tek luminometer.

The next assay has as its target T1, Insrβ (Mus musculus, UniProt P15208).
T1 construct: gastrocnemius skeletal muscle and liver samples were collected and stored at −80° C; from tissue; host or cells: gastrocnemius skeletal muscle (A22) and liver (A24) of Lepr db/db mice
Kind of assay: Western blot of Insrβ phosphorylation in skeletal muscle of Lepr^db/db mice. It is filed as in vivo. Particulars: 0.136 mg/kg ip daily. As for the experimental part:
Male Lepr^db/db mice (C57BL/6J strain, purchased from The Jackson Laboratory) at postnatal day 38 were intraperitoneally injected daily with physiological saline ([…]) containing 0.2% DMSO, or 0.136 mg of Compound #43 per kilogram body weight, diluted in the sterile physiological saline) for 52 days. After the treatment, gastrocnemius skeletal muscle and liver samples were collected and stored at −80° C.
Frozen skeletal muscle and liver tissues were minced in sterile ice-old PBS containing complete proteinase and phosphatase inhibitors (Thermo-Fisher Scientific, Waltham, Mass.) and subjected to homogenization using a tissue homogenizer (Thermo-Fisher Scientific, Waltham, Mass.). These tissue homogenates were diluted in Themo-Fisher's premade RIPA buffer (1 part homogenate/2 part of RIPA buffer) containing complete proteinase/phosphatase inhibitors to extract the proteins. Proteins in the homogenates were extracted in RIPA buffer at 4° C. overnight. These overnight-extracted protein/tissue lysates were centrifuged at 12000×g for 30 min at 4° C., and the protein levels in the supernatant of these tissue lysates were determined using the Pierce Micro-BCA protein assay kit (Thermo Scientific-Piece Biotechnology, Rockford, Ill.) according to the manufacturer's protocol. […]

T1 sequence (P15208 753-1372 limits assumed): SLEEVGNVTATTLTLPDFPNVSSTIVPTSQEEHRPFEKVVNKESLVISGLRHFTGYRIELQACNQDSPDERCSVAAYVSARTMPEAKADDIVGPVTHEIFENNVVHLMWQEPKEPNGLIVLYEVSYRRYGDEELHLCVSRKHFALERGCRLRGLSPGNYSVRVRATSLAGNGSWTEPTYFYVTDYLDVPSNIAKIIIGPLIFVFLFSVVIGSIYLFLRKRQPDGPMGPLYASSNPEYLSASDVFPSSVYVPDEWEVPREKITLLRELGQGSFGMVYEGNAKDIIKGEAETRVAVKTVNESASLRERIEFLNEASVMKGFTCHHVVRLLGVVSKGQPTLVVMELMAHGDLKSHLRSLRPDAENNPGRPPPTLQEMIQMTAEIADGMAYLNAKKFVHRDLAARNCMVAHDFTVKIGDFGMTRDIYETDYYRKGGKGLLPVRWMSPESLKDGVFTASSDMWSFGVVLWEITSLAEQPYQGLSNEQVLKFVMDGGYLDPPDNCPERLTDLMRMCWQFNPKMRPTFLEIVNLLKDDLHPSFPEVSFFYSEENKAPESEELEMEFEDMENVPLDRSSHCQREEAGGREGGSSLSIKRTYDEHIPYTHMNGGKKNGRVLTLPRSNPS
T1 sequence (P15208 28-748 partner limits assumed): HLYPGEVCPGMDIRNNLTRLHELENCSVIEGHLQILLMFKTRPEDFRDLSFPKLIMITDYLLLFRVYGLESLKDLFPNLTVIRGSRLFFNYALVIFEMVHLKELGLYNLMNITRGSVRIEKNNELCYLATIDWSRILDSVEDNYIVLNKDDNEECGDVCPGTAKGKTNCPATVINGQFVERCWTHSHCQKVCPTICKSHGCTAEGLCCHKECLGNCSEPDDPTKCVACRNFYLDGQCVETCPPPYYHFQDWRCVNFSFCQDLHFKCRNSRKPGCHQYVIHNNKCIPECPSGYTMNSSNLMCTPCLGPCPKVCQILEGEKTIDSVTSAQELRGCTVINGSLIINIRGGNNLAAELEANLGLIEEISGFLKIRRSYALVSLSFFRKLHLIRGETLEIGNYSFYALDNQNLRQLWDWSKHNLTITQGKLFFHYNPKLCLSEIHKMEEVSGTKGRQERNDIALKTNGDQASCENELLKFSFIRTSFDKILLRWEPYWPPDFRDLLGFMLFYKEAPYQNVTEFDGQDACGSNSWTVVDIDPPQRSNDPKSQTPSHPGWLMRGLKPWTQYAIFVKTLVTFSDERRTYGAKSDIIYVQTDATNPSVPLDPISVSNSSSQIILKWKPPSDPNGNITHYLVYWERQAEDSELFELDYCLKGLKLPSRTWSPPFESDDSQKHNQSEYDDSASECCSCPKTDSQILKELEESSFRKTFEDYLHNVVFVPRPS

For the molecule `C[Se]C[C@H]1O[C@@H](n2cnc3c(N)ncnc32)C(OC(C)=O)C1OC(C)=O` (some centres unmarked) [Compound #43, Adenosine, 5′-Se-methyl-5′-selino-, 2′,3′-diacetate], in the assay with PDK1/AKT/FOXO1 (600 ppb), the “time of peak increase of pPDK1” value is 60-90 minutes. Moreover, the “phosphorylated AKT at T308” value with PDK1/AKT/FOXO1 (600 ppb, 30, 60, 90 minutes and 24 hr (FIG. 13C)) was “significant and transient increase of phosphorylated AKT at T308”. Moreover, the “phosphorylated FOXO1 at T24” value with PDK1/AKT/FOXO1 (600 ppb, 90 minutes and longer (FIG. 13E)) was “significantly increased”. Besides, the “total AKT protein levels” value with PDK1/AKT/FOXO1 (600 ppb, all tested time points) is recorded as “not significantly altered”. For the same molecule, the “total Foxo1 protein levels” value with PDK1/AKT/FOXO1 (600 ppb, less than 24 hours) is recorded as “no significant change in total FOXO1 protein levels”; with PDK1/AKT/FOXO1 (600 ppb, prolonged treatment 30 hr or 48 hr), “slight but statistically significant decrease of total FOXO1 proteins”. In addition, the pPDK1 protein level result in the assay with PDK1/AKT/FOXO1 (600 ppb, serum-free, 30, 60, 90 minutes (FIG. 13B)) is “significant and transient increase of pPDK1”. Besides, the “increase in glucose uptake” value in assay [1] (co-treatment insulin 200 nM and Compound #43 300 ppb) is 63%. For the same molecule, the “increase of glucose uptake” value in assay [1] (co-treatment insulin 200 nM and Compound #43 600 ppb) was determined as 79%. Moreover, the “increase of phosphorylated Insrβ (Tyrosine 1146) in skeletal muscle” value at Insrβ (52 days (FIG. 20B)) is roughly 2.5 fold. Also, the “total Insrβ protein levels in skeletal muscle” value at Insrβ (52 days (FIG. 20C)) was “no significant change of total Insrβ protein levels”.
